“And” between values parts separate entries of the source, which are not always exact repeats. Equal values may be shown once.
Experiments:
CK1(y) = test: KinaseProfiler enzyme profiling; type: biochemical, yeast; details: 10 µM
Text: Enzyme profiling services were provided by KinaseProfiler™ (Eurofin, Brussels, Belgium). […] For more details, refer to the manufacturer’s instructions (www.eurofinsdiscoveryservices.com).

HCT116 (KRAS mut) CDX = test: Cell-derived xenograft (CDX); type: in vivo, NOD-SCID mice; details: 50 mg/kg, oral gavage
Method: (§1) Tumor volume (mm^3) = (length × width × height) × 0.52. SK-MEL-2: n = 10; A375 and SK-MEL-28: n = 8; HCT116: n = 9. b The photographs show tumors from CDX mice treated with vehicle, erianin, vemurafenib, or the combination. c The weight of the tumors was quantified and expressed as the treatment groups compared with the vehicle-treated group. […] The tissue lysates were prepared from CDX tumor tissues in each treatment group. […] Each point represents the IOD values of four quantified data from one mouse. Scale bars: 50 μm.
(§2) The animal experiments were performed according to the guidelines approved by the Zhengzhou University Institutional Animal Care and Use Committee. A375 cell line (1 × 10^7 cell/mouse), SK-MEL-28 cell line (5 × 10^6 cell/mouse), SK-MEL-2 cell (5 × 10^6 cell/mouse), and HCT116 cell line (1 × 10^7 cell/mouse) were injected subcutaneously into the NOD-SCID mice (Vital River Labs, Beijing, China). For the melanoma PDX mice model, the tumor was taken after surgical operation and implanted into the NPG (Vital River Labs, Beijing, China) mice under a sterile environment. For the colorectal cancer PDX mice model, NOD-SCID mice were selected as carriers for tumor growth. The measurement of tumor size was performed twice a week using vernier caliper and the calculation of tumor volume was done according to tumor volume (mm^3) = length × width × height × 0.52.

SK-MEL-2 (NRAS mut) CDX = test: Cell-derived xenograft (CDX); type: in vivo, NOD-SCID mice; details: 50 mg/kg, oral gavage
Method: as §1, §2

[1] = tested on: SK-MEL-28 (BRAF V600E) CDX; test: Cell-derived xenograft (CDX); details: 50 mg/kg, oral gavage
Method: as §1, §2

A375 (BRAF V600E) CDX = test: Cell-derived xenograft (CDX); details: 50 mg/kg, oral gavage
Method: as §1, §2

[2] = tested on: MAPK signaling pathway (phospho-CRAF, phospho-MEK1/2, phospho-ERK1/2); test: Western blotting of MAPK signaling pathway in cells; details: both BRAF V600E and RAS mutant cell lines, 24 h
CRAF (306-end) [3] = target: T1, CRAF (306-end) (Homo sapiens, UniProt P04049); test: ITC assay; type: binding; details: PBS (0.1% DMSO, pH = 7.4), read-out: affinity (Kd)
T1 construct: purchased
T1 sequence (P04049 306-648 limits assumed): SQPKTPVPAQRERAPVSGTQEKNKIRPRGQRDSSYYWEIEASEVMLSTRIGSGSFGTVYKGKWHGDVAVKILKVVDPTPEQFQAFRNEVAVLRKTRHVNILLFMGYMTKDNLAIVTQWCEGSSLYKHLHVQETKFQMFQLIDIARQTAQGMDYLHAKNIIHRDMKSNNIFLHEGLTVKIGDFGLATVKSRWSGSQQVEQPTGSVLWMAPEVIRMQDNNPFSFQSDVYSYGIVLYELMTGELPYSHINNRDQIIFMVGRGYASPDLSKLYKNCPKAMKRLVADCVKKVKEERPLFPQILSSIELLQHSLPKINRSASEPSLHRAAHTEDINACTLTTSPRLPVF
Method: (§3) 293 T cells were transfected with plasmids of pcDNA3.1-3×Flag-C-MAP2K1/MAP2K1 (K97A, M146A), MAP2K2/MAP2K1 (K101A, M150A), or CRAF/CRAF (K375A). […]
(§4) The ITC experiment was performed on a MicroCal PEAQ-ITC. […] All proteins and erianin were diluted with PBS (0.1% DMSO, pH = 7.4), and deionized water was injected into the reference cell as a heat balance control. After 19 times titrations of erianin into the sample cell at a constant rate of 150 s, the titration curve was fitted with nonlinear least squares estimation model using Microcal ORIGIN V7.0.

MEK1 full length = MEK1 full length (Homo sapiens, UniProt Q02750); test: ITC assay; type: binding; details: PBS (0.1% DMSO, pH = 7.4), read-out: affinity (Kd)
MEK1 full length, sequence (Q02750 whole entry): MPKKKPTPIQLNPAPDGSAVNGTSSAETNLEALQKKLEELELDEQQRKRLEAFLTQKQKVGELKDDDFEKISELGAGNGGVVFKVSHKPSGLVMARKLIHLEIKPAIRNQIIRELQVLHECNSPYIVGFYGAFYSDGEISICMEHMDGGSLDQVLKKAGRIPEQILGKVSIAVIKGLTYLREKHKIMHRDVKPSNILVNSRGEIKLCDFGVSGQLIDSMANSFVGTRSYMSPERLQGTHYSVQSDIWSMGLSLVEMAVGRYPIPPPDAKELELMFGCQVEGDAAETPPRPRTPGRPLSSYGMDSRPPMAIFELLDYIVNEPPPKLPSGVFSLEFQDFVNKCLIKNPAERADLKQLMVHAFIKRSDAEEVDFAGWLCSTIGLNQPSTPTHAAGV
Method: as §3, §4

MEK2 full length [4] = target: T2, MEK2 full length (Homo sapiens, UniProt P36507); test: ITC assay; type: binding; details: PBS (0.1% DMSO, pH = 7.4), read-out: affinity (Kd)
T2 sequence (P36507 whole entry): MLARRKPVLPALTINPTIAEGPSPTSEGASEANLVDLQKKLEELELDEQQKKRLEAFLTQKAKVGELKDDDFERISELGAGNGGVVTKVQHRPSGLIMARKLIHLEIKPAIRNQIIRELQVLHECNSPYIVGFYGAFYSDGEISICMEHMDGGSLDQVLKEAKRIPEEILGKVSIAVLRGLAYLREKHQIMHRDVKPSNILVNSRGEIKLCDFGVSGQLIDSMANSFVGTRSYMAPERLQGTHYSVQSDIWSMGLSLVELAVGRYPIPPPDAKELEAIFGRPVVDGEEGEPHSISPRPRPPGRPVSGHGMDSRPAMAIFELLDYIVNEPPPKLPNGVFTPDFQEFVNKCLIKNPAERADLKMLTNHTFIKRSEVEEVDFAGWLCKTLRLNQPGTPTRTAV
Method: as §3, §4

CRAF (306-end) [5] = target: T1, CRAF (306-end); test: SPR; type: binding; details: CM5 chip, Biacore T200, read-out: equilibrium dissociation constant (KD)
Method: as §3
(§5) After incubation, a series concentration of erianin (RAF inhibitor LY3009120 and MEK inhibitor cobimetinib were simultaneously added as positive control) flowed through the protein-CM5 system. The binding was tested and analyzed using Biacore T200 instrument.

MEK2 full length [6] = target: T2, MEK2 full length; test: SPR; type: binding; details: CM5 chip, Biacore T200, read-out: equilibrium dissociation constant (KD)
Method: as §3, §5

MEK1/2 = test: Erianin-conjugated Sepharose 4B bead pull-down assay; type: binding, human; details: in vitro and ex vivo (A375 cell lysate)
Method: as §3
Cell lysate (500 μg) or recombinant proteins (200 ng) were incubated with erianin-CNBr activated sepharose 4B overnight at 4 °C, and the protein-beads complex was washed four times by the use of rotational incubator to remove non-specific binding. Western blotting was developed to check the pull-down bands.

[7] = tested on: SK-MEL-2, A375, SK-MEL-28, and HCT 116 cells; test: Anchorage-independent cell growth assay; type: cell-based, human; details: both BRAF and RAS mutant cell lines
Method: The synergism and antagonism (CI value) were determined and analyzed using CompuSyn 1.0.

Row | Activity % (CK1(y)) [%] | Structure (SMILES) | tumor volume and tumor weight (HCT116 (KRAS mut) CDX) | tumor volume and tumor weight (SK-MEL-2 (NRAS mut) CDX) | body weight [1] | tumor volume ([1]; vs vehicle-treated group) | body weight (A375 (BRAF V600E) CDX) | tumor volume (A375 (BRAF V600E) CDX; vs vehicle-treated group) | constitutive activation of MAPK signaling pathway [2] | Kd (CRAF (306-end) [3]) [µM] | Kd (MEK1 full length) [µM] | Kd (MEK2 full length [4]) [µM] | Kd (CRAF (306-end) [5]) | Kd (MEK2 full length [6]) [µM] | binding in pull-down (MEK1/2) | colonies formation [7]
1 | 95 | COc1cc2oc(-c3ccc(O)c(O)c3)cc(=O)c2c(O)c1OC [Cirsiliol] | – | – | – | – | – | – | – | – | – | – | – | – | – | –
2 | – | COc1ccc(CCc2cc(OC)c(OC)c(OC)c2)cc1O [Erianin] | inhibited tumor volume and tumor weight significantly | inhibited tumor volume and tumor weight significantly | no significant reduction | significant decrease | no significant reduction | significant decrease | inhibited constitutive activation of MAPK signaling pathway | 46 | 59.3 | 101 | 89.6 µM and 89.7 µM | 115 | directly bound | markedly suppress
